Literature values as cited in patent US20170202789A1, “METHODS AND RELATED COMPOSITIONS FOR IMPROVED DRUG BIOAVAILABILITY AND DISEASE TREATMENT” (priority 2014, published 2017).

Experiments:
[1] = caffeine 160 mg drink prior to cycling time trial, p<0.01
[2] = doses of 6-9 mg/kg
[3] = 400 mg, untrained individuals
[4] = co-administration with carbohydrate drink, depending on dose and frequency
[5] = 3 mg/kg one hour prior to running, p<0.05
[6] = 6 mg/kg + maintenance doses, with 7% carbohydrate drink

SMILES: [O]=[V]([O-])([O-])[O-] [vanadate]
- concentration at which formation of EP is inhibited (Na/K ATPase): less than 1 micromolar

SMILES: Cn1c(=O)c2c(ncn2C)n(C)c1=O [caffeine]
- reduction of time to complete the trial [1]: ~5%
- adverse effects [2]: jitters, increased heart rate, and a diminution in exercise performance
- effect on bench press, leg extension strength or cycle ergometry [3]: did not have any positive effects
- increase in performance [4]: 2-3%
- cognitive function before exercise (energy drink with caffeine, low dose): improved long term memory
- cognitive function after exercise (low and medium dose caffeine containing energy drinks): improved all cognitive tests
- improvement in performance compared to placebo [5]: 1.2%
- difference in performance with versus without caffeine [6]: No differences were noted
